{"source": "patent US20150141460A1", "about": "“Anti-inflammatory Compositions” (Cambridge Enterprise Limited, priority 2007, published 2015)", "system": "LPS-induced TNF-α production", "assay": "Sub-lethal LPS-induced endotoxemia in mice, serum TNF-α by ELISA", "type": "in vivo", "conditions": "mice; doses above 1 μg/mouse; subcutaneous or oral route", "method": "FIGS. 5A-5E show representative dose response curves for the inhibition of LPS induced TNF-α production in vivo in a murine model of sub-lethal endotoxemia. In each experiment, groups of six mice received pre-treatment with the five compounds (FIG. 5A: (II); FIG. 5B: (III); FIG. 5C: (V); FIG. 5D: (I′) and FIG. 5E: (IV)) at various doses, via either the oral route (circles) or subcutaneous route (triangles). 30-60 mins later, animals were challenged with LPS via the intraperitoneal route, and serum was prepared from a terminal bleed 3 hours later. The level of TNF-α in the blood was measured by ELISA, and the degree of inhibition of LPS-induced TNF-α production (calculated as the concentration of TNF-α in mice exposed to LPS minus the concentration of TNF-α in mice which received a sham exposure to endotoxin-free PBS) is shown on the Y-axis of each graph as the mean of six animals, with whiskers representing SEMs. The concentration of TNF-α in mice receiving LPS but no BSCI treatment was typically 5,000 to 6,000 pg/ml on average (compared to <10 pg/ml in unchallenged mice). The ED50 was estimated by linear interpolation of the presented graphs. The X-axis of each graph represents the dose of each compound administered to each mouse in the group in units of mg (1E-07 to 1).\nIn this assay, mice are given a non-specific pro-inflammatory challenge using bacterial endotoxin (LPS), and the extent of the systemic inflammatory response (measured by serum levels of the central pro-inflammatory cytokine TNF-α, which is essentially absent from the blood under normal conditions, but is rapidly elevated in response to a wide range of inflammatory stimuli). We have selected this model even though it is not, itself, a particularly close model of any human inflammatory disease condition, but because TNF-α is known to be important in very many diseases (including rheumatoid arthritis, autoimmune disorders, Crohn's Disease, atherosclerosis, asthma and many more). Consequently, agents which suppress TNF-α production are already used clinically (e.g. Enbrel™ and other anti-TNF-α antibody products) to treat a wide range of such diseases.\nMice (in groups of 6) were pretreated with various doses of each compound, either by the subcutaneous route 30 mins prior to LPS challenge, or by the oral route (via gavage) 60 mins prior to LPS. The mice were then challenged with an intraperitoneal injection of 750 μg of bacterial LPS and sacrificed 3 hours later. Serum was prepared from a terminal bleed by cardiac puncture, and the concentration of TNF-α is determined by ELISA (R&D Systems). In each experiment, a group of 6 mice receive no LPS to act as a negative control, and a second group receive only LPS (with no candidate inhibitor). […]", "data": [{"molecule": "CC(C)(C)C(=O)N[C@H]1CCCNC1=O", "note": "[Compound (I′), (S)-3-(2′,2′-dimethylpropanoylamino)-tetrahydropyridin-2-one]", "values": [{"measurement": "suppression of LPS-induced TNF-α levels", "value": "more than 90%"}]}]}
